Where two headings read alike, the source gives them in different places. One block for each compound: values may come before it. Where a SMILES comes first, the peptide text is derived from it. Bridges are numbered along the chain shown (N, C = ends). Roman numbers before positions name the chains, in order.
Experiments:
Solubility in water = type: physicochemical
[1] = In vivo utilization: single injection via vena cava catheter, plasma peptide/amino acid concentrations by RP-HPLC after DANSYL derivatization; parameters: species or system male Wistar-rats; conditions: for tripeptide concentration in plasma: 20 μmol/100 g bw
Description: For physiological investigation of the in vivo utilization of bis-amino acid cystine-peptides bis-glycyl-L-cystine and bis-L-alanyl-L-cystine were selected as examples and injected into male Wistar-rats in the form of a peptide single injection (50 μmole/100 g bw and 20 μmole/100 g bw respectively, injection volume 0.5-1 ml), by means of a vena cava-catheter within 5 s. The withdrawal of blood (1 ml in herparinized syringes) was 30, 60, 120, 180 and 300 s after application of the peptides. The plasma obtained by centrifugation was subsequently treated with 30% SSA (ratio of sample to SSA 10:1) for precipitation, maintained 1 h at 4° C., and finally centrifuged.
For determination of the bis-glycyl-L-cystine, mono-glycyl-L-cystine, bis-L-alanyl-L-cystine, mono-L-alanyl-L-cystine peptides as well as of the free amino acids glycine, alanine and cystine the precipitated plasma samples were analysed by high pressure liquid chromatography after pre-column derivatization with 5 dimethylaminonaphthaline-1-sulphonylchloride (DANSYL-Cl). The analytical conditions are summarized below:
RP-HPLC after DANSYL-Precolumn Derivatization
Column: Spherisorb ODS 11 3 μm (125×4.6 mm)
(A) 12.5 mM Na-phosphate-buffer of pH 6.6
Detection: fluorescence Em 550/Ex 325

[2] = Sterilization tests (heat sterilization of aqueous peptide solutions, analysed by capillary isotachophoresis and HPLC); type: physicochemical; conditions: heat sterilization (121° C.)
Description: Starting from a stock solution of the tripeptide of the invention so obtained (2 mmol/1 in tris-buffer) solutions having pH-values of 5.5, 6.5, 7.5 and 8.5 were prepared by addition of 0.1 N HCL or KOH, respectively. Thereafter 0.1 ml each of these solutions were filled into ampoules purified with chromosulfuric acid, met sealed under vacuum and sterilized over 8, 12, 15 or 30 min, respectively.
Further respective solution of the cystinyl-bis-alanine-tripeptide were prepared and treated analogeously.
The stock solutions as well as the sterilized samples were analysized by means of capillary-isotachophoreses and HPLC. […] Therefore, said tripeptides are not only suitable for oral preparations, but also and in particular for the preparation of parenteral infusion solutions.

[3] = cited from earlier work
[4] = 30 s after injection, 50 μmole/100 g bw
[5] = first measurement (30 s), 20 μmole/100 g bw

solubility in water (Solubility in water): well soluble in water
time after injection within which the tripeptide could be detected in all 6 test animals ([1]; 20 μmole/100 g bw): ≤ 2 min
time of maximum plasma alanine concentration ([1]; 20 μmole/100 g bw): 30 s
time of maximum plasma cystine concentration ([1]; 20 μmole/100 g bw): 60 s
tripeptide concentration in plasma ([1]; 30 s after injection): 280 µM
concentration of intermediate hydrolysis product ala-(cys)2 relative to the tripeptide ([1]; 30 s after injection, 20 μmole/100 g bw): about 5 fold
detection of tripeptide in plasma at the last sampling ([1]; 300 s after injection, 20 μmole/100 g bw): could not be detected
maximum plasma cystine concentration versus starting concentration ([1]; after 60 s, 20 μmole/100 g bw): 23 times
plasma alanine concentration versus starting level ([1]; after 300 s, 20 μmole/100 g bw): 3 times
plasma alanine concentration versus starting level ([1]; at the beginning (30 s), 20 μmole/100 g bw): ~7 times
level at time molar at 0.05 h ([1]; male, Wistar, rat, plasma, iv, 20 umole/100 g bw, heading: tripeptide concentration in plasma, 180 s after injection, detected in one sample only, 20 μmole/100 g bw): ~20 µM
half-life ([1]; male, Wistar, rat, plasma, iv, 20 μmole/100 g bw, concluded from data, not calculable, read-out: plasma half-life): < 2 min
clearance from the plasma after single injection ([1]; rat): rapidly cleared from the plasma
stability upon heat sterilization in aqueous solution [2]: remain stable upon heat sterilization
SMILES: C[C@H](N)C(=O)N[C@@H](CSSC[C@H](NC(=O)[C@H](C)N)C(=O)O)C(=O)O [(ala-cys)2, N,N'-bis-L-alanyl-L-cystine] (I: H-Ala-Cys-OH / II: H-Ala-Cys-OH; disulfide I:2-II:2)

tripeptide plasma concentration 5 min after injection relative to the value after 30 s ([1]; 50 μmole/100 g bw single injection, rat plasma): about 10%
tripeptide concentration in plasma ([1]; 30 s after injection): 655 µM
plasma cystine concentration versus starting concentration [1, 4]: 14 fold
plasma glycine concentration versus starting concentration [1, 4]: 12 fold
plasma cystine concentration versus starting value ([1]; 5 min after injection, 50 μmole/100 g bw): about 30 times
plasma cystine concentration versus starting point [1, 5]: 10 fold
plasma glycine concentration versus starting point [1, 5]: 5 fold
half-life ([1]; male, Wistar, rat, plasma, iv, two compartment model, residual method, n=5, 50 μmole/100 g bw, read-out: calculated half-life (converted)): 4 min
clearance from the plasma after single injection ([1]; rat): rapidly cleared from the plasma
SMILES: NCC(=O)N[C@@H](CSSC[C@H](NC(=O)CN)C(=O)O)C(=O)O [(gly-cys)2, N,N'-bis-glycyl-L-cystine] (I: H-Gly-Cys-OH / II: H-Gly-Cys-OH; disulfide I:2-II:2)
solubility in water (prior art statement) [3]: soluble

solubility in water (Solubility in water): well soluble in water
stability upon heat sterilization in aqueous solution [2]: unstable upon heat sterilization
time of heat sterilization after which other derivatives are formed [2]: ≤ 8 min
SMILES: C[C@H](NC(=O)[C@@H](N)CSSC[C@H](N)C(=O)N[C@@H](C)C(=O)O)C(=O)O [L-cystinyl-bis-L-alanine] (I: H-Cys-Ala-OH / II: H-Cys-Ala-OH; disulfide I:1-II:1)

SMILES: CC(=O)N[C@@H](CSSC[C@H](NC(C)=O)C(=O)O)C(=O)O [N,N'-bis-acetylcystine, reference compound]
solubility in water (prior art statement) [3]: relatively high solubility in water

Reference: patent US4968696A, “N,N'-bis-L-amino acid-L-cystine-peptide containing amino acid preparations for oral parenteral nutrition” (Pfrimmer + Co. Pharmazeutische Werke Erlangen GmbH + co. KG, priority 1986, dated 1990)
